The text below walks through data of the SangsterLogP compilation.

The nature of the first series: method code SF, from Hansch, C. & Leo, A. (1987). Log P database [Dataset]. Pomona College Medicinal Chemistry Project.
Conditions: not given
In the case of `Cc1ccc2c(ccc[n+]2[O-])c1`, the logP is 0.95.

Consider `O=CNc1ccccc1`, for which the log partition coefficient (logP) is 1.2.

As for `c1ccc(-n2cnnn2)cc1`, the logP turned out to be 1.09.

Regarding `CSCCC(=O)N(C)c1ccc(S(=O)(=O)N(C)C)cc1`, the logP was 0.99.

Molecule `COC(=O)C=Cc1ccccc1` registered a logP of 2.62.

With `O=[N+]([O-])/C=C/c1ccc(Cl)cc1Cl`, the logP was found to be 3.26.

For `CP(C)c1ccccc1`, the lipophilicity (logP) turned out to be 2.57.

The molecule `Cc1cccc(NC(=O)c2ccccc2)c1` registered a logP of 2.75.

The molecule `O=C(O)CCl` gave a logP of 0.22.

Take `CCOC(=O)C(=Cc1ccc(Br)cc1)C(=O)OCC`: the logP is 4.02.

Consider `CCCCNC`, for which the log partition coefficient (logP) came out at 1.33.

Turning to `CC(Cl)(Cl)Cl`, the logP came to 2.49.

For `O=CC(CO)OC(C=O)n1cnc2c(O)ncnc21` (stereo not given), the logP is -2.11.

The molecule `CC(=O)OCC(F)(F)F` returned a logP of 1.18.

For the molecule `CCc1ccc2c(c1)C(=O)c1ccc(NC(C)=O)cc1S2(=O)=O`, the logP was 3.44.

In turn, `CCOC(=O)C(C#N)=Cc1ccccc1` returned a lipophilicity (logP) of 2.43.

`CCOC(=O)C(=Cc1ccc(Cl)cc1)C(C)=O` gave a logP of 3.04.

Turning to `CS(=O)(=O)N(c1ccccc1)S(C)(=O)=O`, the logP is 0.62.

Turning to `Sc1ncccn1`, the logP was -0.97.

On to `CCOC(=O)CON=Cc1ccc(OCCOC(=O)c2ccccc2OC)c(OC)c1`, for which the logP was 3.27.

As for `OCC(Br)(Br)Br`, the logP was 2.1.

Molecule `CN(C)C(=O)N(c1ccccc1)c1ccccc1` returned a logP of 2.8.

For the molecule `Nc1cc(=O)[nH]cn1`, the log partition coefficient (logP) is -0.99.

With `O=c1cnn([C@@H]2O[C@H](CO)[C@@H](O)[C@H]2O)c(=O)[nH]1`, the logP was -2.14.

As to `NC(=O)CF`, the logP is -1.05.

Regarding `CCCCC1OC(=O)c2cc(Br)ccc21` (stereo not given), the logP is 4.24.

`CC(=O)Nc1ccc(Oc2ccccc2)cc1` gave a log partition coefficient (logP) of 3.13.

`OC(c1ccccc1)(c1ccccc1)c1ccccc1` had a logP of 3.68.

Turning to `CC(=O)NCCC(=O)N(C)c1ccc(S(=O)(=O)N(C)C)cc1`, the logP is -0.35.

On to `O=NN1CCCCC1=O`, for which the logP is -1.05.

Molecule `O=C(O)c1ccc(NCc2ccccc2)cc1` had a logP of 2.44.

In the case of `CCCCOc1cccc(C=C(C(=O)OCC)C(=O)OCC)c1`, the logP is 4.03.

In turn, `O=C(/C=C/C(=O)c1ccccc1)c1ccccc1` yielded a logP of 3.16.

In the case of `O=c1[nH]c(=O)n([C@H]2C[C@H](O)[C@@H](CO)O2)cc1Br`, the logP was -0.29.

As to `O=C(O)COc1ccc(Cl)c(C(=O)O)c1`, the lipophilicity (logP) stood at 1.07.

In turn, `Cc1cc(C)ncn1` displayed a logP of 0.62.

`c1ccc2c(c1)OCCO2` displayed a logP of 2.01.

Molecule `O=S(=O)(Cc1ccccc1)c1ccccc1` came in with a logP of 2.05.

`O=C(O)COc1ccc(Cl)c(I)c1` returned a logP of 3.1.

On to `CCOP(=S)(OCC)SCSCC`, for which the logP was 3.24.

`COc1ccc(C(C)=O)c(N)c1` returned a logP of 1.76.

The molecule `CC(=O)Nc1ccccc1C#N` had a logP of 0.57.

Turning to `COP(=O)(CC(C)=O)OC`, the logP came out at 0.86.

Turning to `CCN(CC)c1ccc(NC(=O)N(C)OC)cc1`, the logP was 2.33.

Molecule `Brc1cccs1` had a logP of 2.75.

As to `CC1=Nc2c(Br)cc(Cl)cc2S(=O)(=O)N1`, the logP amounted to 1.65.

Consider `OC1OC[C@H](O)[C@H](O)[C@H]1O` (stereo not given in full), for which the logP is -3.02.

With `O=C(Nc1ccc(Cl)c(Cl)c1)C1CCCC1`, the lipophilicity (logP) came to 4.47.

`CCN(CC)C(=O)[C@@H]1C=C2c3cccc4[nH]cc(c34)C[C@H]2N(C)C1` returned a lipophilicity (logP) of 2.95.

Take `CN1CCOCC1`: the logP was -0.33.

The molecule `CCCCC1OC(=O)c2cc(N(CCO)CCO)ccc21` (stereo not given) displayed a logP of 1.34.

On to `CCOP(=O)(N=C1SCC(C)S1)OCC` (stereo not given), for which the logP came to 1.04.

As to `O=C(O)c1ccncc1`, the logP is -0.57.

With `CCC1(CC)OC(=O)c2ccccc21`, the logP came out at 2.69.

Molecule `Cc1cccc(Cl)c1` had a logP of 3.28.

For the molecule `Cc1ccc([N+]([O-])=NC#N)cc1`, the logP was found to be 2.39.

The molecule `CCOP(=O)(OCC)SCn1nnc2ccccc2c1=O` returned a logP of 1.63.

The molecule `Cc1cccc(/N=N/N(C)C)c1` displayed a logP of 2.85.

In turn, `c1ccc(-c2ccc3ccccc3n2)cc1` returned a logP of 3.9.

In the case of `CC#CC`, the logP turned out to be 1.46.

The molecule `CC(C)CCC(=O)c1ccoc1` had a lipophilicity (logP) of 2.76.

With `COC(=O)CNC(=O)c1ccc(N)cc1`, the logP is -0.23.

Turning to `CCCC1=Nc2cc(Cl)ccc2S(=O)(=O)N1`, the logP was found to be 2.04.

With `O=[N+]([O-])CCc1ccccc1`, the logP came to 2.08.

`O=[N+]([O-])c1ccc(CCO)cc1` had a logP of 1.12.

`CN(C)c1ccc(N=C2C=CC(=O)C=C2)cc1`: the lipophilicity (logP) was 2.02.

For the molecule `O=NN(CCCl)C(=O)NC1CCC(O)CC1` (stereo not given), the logP was 1.11.

Consider `COc1cc(C=NO)ccc1OCCO`, for which the log partition coefficient (logP) is 0.82.

`COC(=O)c1cc(Oc2ccc(Cl)cc2Cl)ccc1[N+](=O)[O-]` came in with a logP of 4.48.

The molecule `FC(F)(F)c1cccc2cccnc12` showed a logP of 2.5.

On to `N#Cc1c[nH]c2ccccc12`, for which the logP was found to be 2.32.

On to `CC1=NS(=O)(=O)c2ccc(C(F)(F)F)cc2N1`, for which the logP amounted to 1.59.

On to `COc1cccc(C=C(C(C)=O)C(C)=O)c1`, for which the logP turned out to be 1.79.

`O=[N+]([O-])Cc1ccccc1` registered a logP of 1.75.

With `O=C(O)c1ccc(C(F)(F)F)cc1`, the logP came out at 3.1.

Take `NC(=O)c1ccc(N)cc1`: the logP is -0.41.

Consider `N#CCC(N)=C(C#N)C#N`, for which the logP is -0.13.

For the molecule `CC(=O)c1ccccc1OC(=O)N(C)C`, the logP came to 0.93.

For `CC1=Nc2ccccc2S(=O)(=O)N1`, the lipophilicity (logP) worked out at 0.29.

In the case of `Cc1ccc(S(=O)(=O)F)cc1`, the logP was determined as 2.74.

Molecule `C[C@@H]1C[C@H]2[C@@H]3C[C@H](F)C4=CC(=O)C(Cl)=C[C@]4(C)[C@@]3(Cl)[C@@H](O)C[C@]2(C)[C@@]1(O)C(=O)COC(=O)C(C)(C)C` gave a logP of 4.73.

`CCC(=O)OCC(=O)[C@@]1(OC(=O)CC)[C@@H](C)C[C@H]2[C@@H]3CCC4=CC(=O)C=C[C@]4(C)[C@@]3(F)[C@@H](O)C[C@@]21C` returned a logP of 4.07.

As for `OC(C1CO1)C(O)C1CO1` (stereo not given), the logP was -1.29.

`O=C1c2c(O)ccc(O)c2C(=O)c2c(NCCNCCO)ccc(NCCNCCO)c21` returned a logP of 0.07.

On to `CCC(=O)CCCN(C)c1ccc(S(=O)(=O)N(C)C)cc1`, for which the logP is 0.71.

As to `COc1cc(C=O)ccc1OCCOC(=O)c1cccc(Cl)c1`, the logP is 3.67.

With `O=Cc1ccsc1`, the logP amounted to 1.01.

`CC1(C)OCCO1`: the logP came to 0.46.

`CCOC(=O)CC(=O)C=Cc1ccc(C)cc1` registered a logP of 2.63.

As to `CCOS(=O)(=O)c1ccc(C)cc1`, the logP is 1.81.

`O=[N+]([O-])c1cn[nH]c1` had a log partition coefficient (logP) of 0.59.

On to `Clc1ccc2[nH]c(CCCc3nc4cc(Cl)ccc4[nH]3)nc2c1`, for which the logP amounted to 1.88.

Regarding `CC(C)(C)C(=O)Nc1ccc(Cl)c(Cl)c1`, the logP was determined as 3.88.

`NC(=S)NN=Cc1ccccc1` had a logP of 1.86.

Turning to `O=c1[nH]c2ccccc2o1`, the logP was 1.16.

On to `COc1ccc(NC(C)=O)cc1`, for which the logP came out at 1.1.

`CC(=O)N(c1ccccc1)c1ccccc1` had a logP of 2.05.

For `CCC1=Nc2cc(Cl)ccc2S(=O)(=O)N1`, the logP turned out to be 1.61.

On to `CN(C)C(=O)Nc1ccc(C(C)(C)C)cc1`, for which the logP is 3.1.

`CC1=Nc2cc([N+](=O)[O-])c(Cl)cc2S(=O)(=O)N1` yielded a lipophilicity (logP) of 1.42.

`O=S1(=O)NC=Nc2cc(Cl)ccc21`: the logP came to 1.01.

`C#CCCC(C)=O` yielded a lipophilicity (logP) of 0.58.

Take `NNC(=O)c1ccccc1`: the logP was determined as 0.21.

`O=CC=Cc1ccco1` came in with a logP of 1.15.

For the molecule `C/C=C/C`, the logP was found to be 2.31.

Take `Cn1c(=O)cnc2ccccc21`: the logP came out at 0.79.

`Oc1ccnc2cc(C(F)(F)F)ccc12` gave a logP of 2.05.

Still in this series, the particulars now being: pH 0.7.
`O=C1CC(C(=O)O)Oc2ccccc21` (stereo not given) returned a logD of 1.26.

Still in this series, the particulars now being: pH 1.0.
Molecule `NS(=O)(=O)c1ccc(C(=O)O)cc1` registered a logD of 0.5.

The molecule `O=C(O)C(CO)c1ccccc1` (stereo not given) gave a logD of 0.77.

In turn, `O=C(O)C(c1ccccc1)c1ccccc1` registered a logD of 3.09.

Still in this series, the particulars now being: pH 4.2.
Consider `NC(=O)c1nc[nH]c1N=NN(CCO)Cc1ccccc1`, for which the logD came out at 0.99.

Staying with this series, now noted: pH 5.0.
As to `O=[N+]([O-])c1ccc2oncc2c1`, the logD worked out at 1.46.

Staying with this series, now noted: pH 7.0.
Turning to `CCOc1cccc(NC(C)=O)c1`, the logD was 1.82.

The molecule `NC(=O)c1ccc(N)nc1` gave a logD of 0.7.

The same series, now with this note: pH 7.4.
`NC(=S)N/N=C/c1ccc(O)cn1` returned a logD of 0.69.

Consider `COC1OCC(O)C(NC(=O)N(C)N=O)C1O` (stereo not given), for which the logD is -1.08.

As for `O=C1C=C(O)CCN1[C@@H]1O[C@H](CO)[C@@H](O)[C@H]1O`, the logD is -2.28.

Molecule `Cc1c(N(C)C)c(=O)[nH]c(=O)n1-c1ccccc1` returned a pH-dependent lipophilicity (logD) of 1.4.

Take `O=NN(CCCl)C(=O)N[C@@H]1[C@@H](O)[C@H](O)[C@@H](CO)O[C@H]1O`: the pH-dependent lipophilicity (logD) was -1.02.

Staying with this series, now noted: pH 7.5.
For the molecule `O=C[C@H](O)[C@@H](O)[C@H](O)[C@H](O)CO`, the logD was -1.88.

Staying with this series, now noted: pH 8.0.
In the case of `CC(=O)OC(OC(C)=O)c1ccc([N+](=O)[O-])o1`, the logD was 1.06.

The series is the same for the next values; noted with them: pH 11.0.
For the molecule `CCCCNCc1cccnc1`, the logD amounted to 1.34.

Staying with this series, now noted: pH 12.0.
`CC1(C)N=C(N)N=C(N)N1c1cccc([N+](=O)[O-])c1` had a pH-dependent lipophilicity (logD) of 0.06.

As to `CN(CCO)N=Nc1ccccc1`, the logD was found to be 1.71.

The same series, now with this note: pH 13.0.
Regarding `CC(=O)Nc1cccc(OCc2cccc(N3C(N)=NC(N)=NC3(C)C)c2)c1`, the logD turned out to be 1.15.

On to `CC(=O)c1cccc(N2C(N)=NC(N)=NC2(C)C)c1`, for which the logD is -0.22.

With `CC(=O)Nc1cccc(OCc2cccc(/N=C(\N)N=C(N)N)c2)c1`, the logD came out at 1.82.

In the case of `COC(OC)OC`, the logD was determined as 0.25.

`CCOc1cc(Cc2cnc(N)nc2N)cc(OCC)c1` came in with a logD of 2.52.
